Assay: excess molar enthalpy (molar enthalpy of mixing); xn = mol fraction of the nth substance listed
Details: 101 kPa, Liquid, Calvet calorimetry

[Bi] [bismuth] + [Cu]
Details | excess molar enthalpy [kcal/mol]
1073.2 K, x2 = 0.0427 | 0.194
1073.2 K, x2 = 0.0749 | 0.337
1073.2 K, x2 = 0.0819 | 0.358
1073.2 K, x2 = 0.1184 | 0.493
1073.2 K, x2 = 0.1417 | 0.584
1073.2 K, x2 = 0.1524 | 0.603
1073.2 K, x2 = 0.1852 | 0.697
1073.2 K, x2 = 0.2051 | 0.763
1073.2 K, x2 = 0.216 | 0.771
1073.2 K, x2 = 0.2446 | 0.834
1073.2 K, x2 = 0.2648 | 0.887
1073.2 K, x2 = 0.2722 | 0.891
1073.2 K, x2 = 0.2982 | 0.937
1073.2 K, x2 = 0.3165 | 0.973
1073.2 K, x2 = 0.3228 | 0.974
1073.2 K, x2 = 0.3461 | 1
1073.2 K, x2 = 0.3622 | 1.02
1073.2 K, x2 = 0.3683 | 1.02
1073.2 K, x2 = 0.3893 | 1.04
1073.2 K, x2 = 0.4032 | 1.04
1273.2 K, x2 = 0.1194 | 0.496
1273.2 K, x2 = 0.2184 | 0.84
1273.2 K, x2 = 0.2984 | 1.04
1273.2 K, x2 = 0.3648 | 1.15
1273.2 K, x2 = 0.4198 | 1.21
1273.2 K, x2 = 0.47 | 1.23
1273.2 K, x2 = 0.5122 | 1.24
1273.2 K, x2 = 0.5486 | 1.22
1273.2 K, x2 = 0.5801 | 1.2
1273.2 K, x2 = 0.6078 | 1.18
1273.2 K, x2 = 0.632 | 1.16
1273.2 K, x2 = 0.6535 | 1.13
1273.2 K, x2 = 0.673 | 1.1
1273.2 K, x2 = 0.6904 | 1.07
1273.2 K, x2 = 0.7077 | 1.04
1273.2 K, x2 = 0.724 | 1.01
1273.2 K, x2 = 0.7393 | 0.985
1273.2 K, x2 = 0.7532 | 0.956
1273.2 K, x2 = 0.7659 | 0.924
1273.2 K, x2 = 0.7773 | 0.897
1273.2 K, x2 = 0.7884 | 0.874
1273.2 K, x2 = 0.7985 | 0.859
1273.2 K, x2 = 0.8078 | 0.828
1273.2 K, x2 = 0.8164 | 0.802
1273.2 K, x2 = 0.8244 | 0.777
